Laboratory results: publication PMC3411110, “AdpA, key regulator for morphological differentiation regulates bacterial chromosome replication” (Open Biology, 2012)

Key:
[1] = biological target: T1, AdpA (AdpAHis6) (Streptomyces coelicolor, UniProt Q9L062); assay: effect on AdpA-oriC complex formation; settings: inhibits DNA binding; direct ADP binding not measured
[2] = biological target: T1, AdpA (AdpAHis6); assay: SPR of AdpA on immobilised oriC DNA; glutaraldehyde cross-linking of AdpA-oriC complexes; settings: 3 mM ATP in SPR, increasing ATP in cross-linking with 100 nM AdpA; HBS200 buffer pH 7.4, 10 mM MgOAc; 283-bp oriC fragment; inhibits DNA binding; direct ATP binding not measured
[3] = biological target: DnaA (DnaAHis6) (Streptomyces coelicolor, UniProt P27902); assay: SPR of DnaA on immobilised oriC DNA with and without ATP; settings: 3 mM ATP; HBS200 buffer pH 7.4, 10 mM MgOAc; 283-bp oriC fragment; promotes DNA binding; direct ATP binding not measured
Sequence of DnaA (DnaAHis6) (P27902 whole entry, the tested form may be a part): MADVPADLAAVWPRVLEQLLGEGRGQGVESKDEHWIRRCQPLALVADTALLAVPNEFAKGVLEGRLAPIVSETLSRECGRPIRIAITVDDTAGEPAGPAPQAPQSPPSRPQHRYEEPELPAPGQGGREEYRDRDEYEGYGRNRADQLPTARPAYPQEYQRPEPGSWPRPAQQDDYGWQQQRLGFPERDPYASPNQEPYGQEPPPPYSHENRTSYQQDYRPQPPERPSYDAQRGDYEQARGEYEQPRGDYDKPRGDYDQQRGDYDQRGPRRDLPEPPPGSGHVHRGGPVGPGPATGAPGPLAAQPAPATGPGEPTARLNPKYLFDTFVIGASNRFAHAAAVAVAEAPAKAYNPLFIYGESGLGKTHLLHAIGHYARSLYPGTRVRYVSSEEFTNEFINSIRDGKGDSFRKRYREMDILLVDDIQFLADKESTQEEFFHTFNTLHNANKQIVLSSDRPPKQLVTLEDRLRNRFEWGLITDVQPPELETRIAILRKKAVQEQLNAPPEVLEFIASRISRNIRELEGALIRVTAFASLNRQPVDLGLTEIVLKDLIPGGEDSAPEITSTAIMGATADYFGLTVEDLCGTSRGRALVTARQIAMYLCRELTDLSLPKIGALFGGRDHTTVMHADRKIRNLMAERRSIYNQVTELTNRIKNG

T1 sequence (Q9L062 entry or part of it): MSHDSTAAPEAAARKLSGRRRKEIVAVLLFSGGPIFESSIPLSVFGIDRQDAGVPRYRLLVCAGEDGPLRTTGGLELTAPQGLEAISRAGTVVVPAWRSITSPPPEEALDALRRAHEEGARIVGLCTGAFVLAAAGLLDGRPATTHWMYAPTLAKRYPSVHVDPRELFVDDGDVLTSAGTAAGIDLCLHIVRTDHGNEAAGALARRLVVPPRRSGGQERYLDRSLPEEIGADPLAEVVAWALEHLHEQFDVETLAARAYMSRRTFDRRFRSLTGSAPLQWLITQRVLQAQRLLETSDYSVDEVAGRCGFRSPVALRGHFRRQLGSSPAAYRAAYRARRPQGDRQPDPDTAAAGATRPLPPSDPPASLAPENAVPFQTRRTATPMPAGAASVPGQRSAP

SMILES | effect on AdpA-oriC complex formation [1] | SPR of AdpA on immobilised oriC DNA; glutaraldehyde cross-linking of AdpA-oriC c [2] | SPR of DnaA on immobilised oriC DNA with and without ATP [3]
Nc1ncnc2c1ncn2[C@@H]1O[C@H](COP(=O)(O)OP(=O)(O)O)[C@@H](O)[C@H]1O [ADP] | a similar effect was also observed in the presence of ADP |  | 
Nc1ncnc2c1ncn2[C@@H]1O[C@H](COP(=O)(O)OP(=O)(O)OP(=O)(O)O)[C@@H](O)[C@H]1O [ATP] |  | ATP at the same concentration used for DnaA-binding experiments nearly completely abolished binding of AdpA | binds DnaA box(es), particularly weak ones, more efficiently in the presence of ATP
